Source: patent US20220381787A1, “NOVEL LOX-1 ANTIBODY COMPOSITIONS, LOX1 NEUTRALIZATION ASSAY AND METHODS OF TREATMENT USING SAME” (The Wistar Institute of Anatomy and Biology, priority 2019, published 2022)

Tested on: PMN isolated from a healthy donor
Assay: FACS of untreated or Thapsigargin-treated PMN for LOX-1 expression
Type: cell-based, human
Details: 1 μM Thapsigargin (THG)
Protocol: FIGS. 10A and 10B show FACS analyses of PMN cells showing the expression of LOX-1. Representative histograms of untreated or Thapsigargin (THG)-treated cells were stained after incubating with anti-LOX-1 antibody (Ab) are shown. Percentage of LOX-1^+ PMN and expression of LOX-1 in PMN isolated from a healthy donor and treated with 1 μM […] and 1 mM Dithiothreitol (DTT). Representative LOX-1 expression level with anti-LOX-1 and commercial Abs. Representative LOX-1 expression level with DMAb derived Abs. Summary of data derived from FACS analysis of LOX-1 level is expressed as the % of LOX-1^+/CD15^+.

## C/C=C(/C)C(=O)O[C@H]1C(C)=C2[C@H]([C@@H]1OC(=O)CCCCCCC)[C@@](C)(OC(C)=O)C[C@H](OC(=O)CCC)[C@@]1(O)[C@H]2OC(=O)[C@@]1(C)O [THG, Thapsigargin]
  percentage of LOX-1+ PMN (% of LOX-1+/CD15+): Higher percentages of PMN expressed LOX-1
